Where a name gives a salt, the structure may show the parent alone. Read-outs that look alike come from different tables or passages of the source.
Experiments:
[1] = target: T1, HCV NS3/4A protease complex, BMS strain (genotype 1a) (Hepatitis C virus genotype 1a, UniProt P27958, C1454S/C1711G); experiment: Recombinant HCV NS3/4A protease complex FRET peptide assay (BMS strain); type: biochemical; conditions: IC50 ranges
T1 construct: recombinant HCV NS3/4A protease complex (amino'acids 1027 to 1711); inferred from the pET21b vector and Ni-NTA purification; made in house; host or cells: Escherichia coli BL21 (DE3), pET21b
T1 sequence (P27958 1027-1711 C1454S/C1711G, one chain of several): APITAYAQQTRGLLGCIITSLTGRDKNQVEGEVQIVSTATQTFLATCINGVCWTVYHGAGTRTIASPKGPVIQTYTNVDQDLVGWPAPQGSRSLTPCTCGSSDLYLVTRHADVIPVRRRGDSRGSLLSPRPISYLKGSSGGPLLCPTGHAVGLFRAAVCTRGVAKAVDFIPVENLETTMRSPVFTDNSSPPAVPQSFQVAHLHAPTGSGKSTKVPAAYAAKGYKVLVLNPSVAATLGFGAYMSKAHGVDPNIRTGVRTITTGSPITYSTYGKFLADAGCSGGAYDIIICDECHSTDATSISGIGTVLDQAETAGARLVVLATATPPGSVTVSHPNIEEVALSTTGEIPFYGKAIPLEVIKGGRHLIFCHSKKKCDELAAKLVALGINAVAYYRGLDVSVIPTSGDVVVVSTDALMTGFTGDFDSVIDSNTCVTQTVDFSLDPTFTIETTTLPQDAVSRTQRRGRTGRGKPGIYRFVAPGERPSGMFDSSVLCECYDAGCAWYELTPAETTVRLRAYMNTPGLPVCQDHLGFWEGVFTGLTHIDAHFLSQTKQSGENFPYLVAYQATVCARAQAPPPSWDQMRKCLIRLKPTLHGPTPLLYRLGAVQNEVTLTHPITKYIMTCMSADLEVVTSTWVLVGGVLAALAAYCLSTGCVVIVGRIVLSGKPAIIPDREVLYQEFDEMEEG
From the text: The purpose of this in vitro assay was to measure the inhibition of HCV NS3 protease complexes, derived from the BMS, H77C or J4L6S strains, as described below, by compounds of the present invention. This assay provides an indication of how effective compounds of the present invention would be in inhibiting HCV proteolytic activity.
Serum from an HCV-infected patient was obtained from Dr. T. Wright, San Francisco Hospital. An engineered full-length cDNA (compliment deoxyribonucleic acid) template of the HCV genome (BMS strain) was constructed from DNA fragments obtained by reverse transcription-PCR (RT-PCR) of serum RNA (ribonucleic acid) and using primers selected on the basis of homology between other genotype 1a strains. From the determination of the entire genome sequence, a genotype 1a was assigned to the HCV isolate according to the classification of Simmonds et al. (See P Simmonds, K A Rose, S Graham, S W Chan, F McOmish, B C Dow, E A Follett, P L Yap and H Marsden, J. Clin. Microbiol., 31 (6), 1493-1503 (1993)). […] The infectious clones, H77C (1a genotype) and J4L6S (1b genotype) were obtained from R. Purcell (N1H) and the sequences are published in Genbank (AAB67036, see Yanagi, M., Purcell, R. H., Emerson, S. U. and Bukh, J. Proc. Natl. Acad. Sci. U.S.A. 94 (16), 8738-8743 (1997); AF054247, see Yanagi, M., St Claire, M., Shapiro, M., Emerson, S. U., Purcell, R. H. and Bukh, J, Virology 244 (1), 161-172. (1998)).
The BMS, H77C and J4L6S strains were used for production of recombinant NS3/4A protease complexes. DNA encoding the recombinant HCV NS3/4A protease complex (amino'acids 1027 to 1711) for these strains were manipulated as described by P. Gallinari et al. (see Gallinari P, Paolini C, Brennan D, Nardi C, Steinkuhler C, De Francesco R. Biochemistry. 38 (17):5620-32, (1999)). Briefly, a three-lysine solubilizing tail was added at the 3′-end of the NS4A coding region. The cysteine in the P1 position of the NS4A-NS4B cleavage site (amino acid 1711) was changed to a glycine to avoid the proteolytic cleavage of the lysine tag. Furthermore, a cysteine to serine mutation was introduced by PCR at amino acid position 1454 to prevent the autolytic cleavage in the NS3 helicase domain. The variant DNA fragment was cloned in the pET21b bacterial expression vector (Novagen)and the NS3/4A complex was expressed in Escherichia. coli strain BL21 (DE3) (Invitrogen) following the protocol described by P. Gallinari et al. (see Gallinari P, Brennan D, Nardi C, Brunetti M, Tomei L, Steinkuhler C, De Francesco R., J. Virol. 72 (8):6758-69 (1998)) with modifications. Briefly, NS3/4A expression was induced with 0.5 mM Isopropyl β-D-1-thiogalactopyranoside (IPTG) for 22 hr at 20° C. A typical fermentation (10L) yielded approximately 80 g of wet cell paste. The cells were resuspended in lysis buffer (10 mL/g) consisting of 25 mM N-(2-Hydroxyethyl)Piperazine-N′-(2-Ethane Sulfonic acid) (HEPES), pH 7.5, 20% glycerol, 500 mM Sodium Chloride (NaCl), 0.5% Triton-X100, 1 ug/ml lysozyme, 5 mM Magnesium Chloride (MgCl2), 1 ug/ml Dnasel, 5 mM β-Mercaptoethanol (OME), Protease inhibitor-Ethylenediamine Tetraacetic acid (EDTA) free (Roche), homogenized and incubated for 20 mins at 4° C. The homogenate was sonicated and clarified by ultra-centrifugation at 235000 g for 1 hr at 4° C. Imidazole was added to the supernatant to a final concentration of 15 mM and the pH adjusted to 8.0. The crude protein extract was loaded on a Nickel-Nitrilotriacetic acid (Ni-NTA) column pre-equilibrated with buffer B (25 mM HEPES, pH 8.0, 20% glycerol, 500 mM NaCl, 0.5% Triton-X100, 15 mM imidazole, 5 mM βME). The sample was loaded at a flow rate of 1 mL/min. The column was washed with 15 column volumes of buffer C (same as buffer B except with 0.2% Triton-X100). The protein was eluted with 5 column volumes of buffer D (same as buffer C except with 200 mM Imidazole). […]

[2] = tested on: HCV replicon in Huh7 cells; experiment: HCV replicon cell-based assay (replicon FRET assay); design: species or system HCV strain 1B; conditions: EC50 ranges
From the text: An HCV replicon whole cell system was established as described by Lohmann V, Korner F, Koch J, Herian U, Theilmann L, Bartenschlager R., Science 285 (5424):110-3 (1999). This system enabled us to evaluate the effects of our HCV Protease compounds on HCV RNA replication. Briefly, using the HCV strain 1B sequence described in the Lohmann paper (Assession number:AJ238799), an HCV cDNA was generated encoding the 5′ internal ribosome entry site (IRES), the neomycin resistance gene, the EMCV (encephalomyocarditis viurs)-IRES and the HCV nonstructural proteins, NS3-NS5B, and 3′ non-translated region (NTR). In vitro transcripts of the cDNA were transfected into the human hepatoma cell line, Huh7. […] Resulting cell lines were characterized for positive and negative strand RNA production and protein production over time.
Huh7 cells, constitutively expressing the HCV replicon, were grown in Dulbecco's Modified Eagle Media (DMEM) containing 10% Fetal calf serum (FCS) and 1 mg/ml G418 (Gibco-BRL). Cells were seeded the night before (1.5×10^4 cells/well) in 96-well tissue-culture sterile plates. Compound and no compound controls were prepared in DMEM containing 4% FCS, 1:100 Penicillin/Streptomysin, 1:100 L-glutamine and 5% DMSO in the dilution plate (0.5% DMSO final concentration in the assay). Compound/DMSO mixes were added to the cells and incubated for 4 days at 37° C. After 4 days, plates were rinsed thoroughly with Phosphate-Buffered Saline (PBS) (3 times 150 μl). The cells were lysed with 25 μl of a lysis assay reagent containing the FRET peptide (RET S1, as described for the in vitro enzyme assay). The lysis assay reagent was made from 5× cell Luciferase cell culture lysis reagent(Promega #E153A) diluted to 1× with distilled water, NaCl added to 150 mM final, the FRET peptide diluted to 10 μM final from a 2 mM stock in 100% DMSO. The plate was then placed into the Cytofluor 4000 instrument which had been set to 340 nm excitation/490 emission, automatic mode for 21 cycles and the plate read in a kinetic mode. EC50 determinations were carried out as described for the IC50 determinations.

[3] = IC50, HCV NS3/4A protease FRET assay in vitro
[4] = Hepatitis C virus, Huh-7, HCV replicon cell assay

SMILES	IC50 ([1]; HCV NS3/4A protease FRET assay in vitro, read-out: IC50) [nM]	EC50 ([2]; HCV replicon cell assay, read-out: EC50) [nM]	IC50 [1, 3] [nM]	EC50 [2, 4] [nM]
COc1ccc2c(O[C@@H]3C[C@H]4C(=O)N[C@]5(C(=O)NS(=O)(=O)C6CC6)C[C@H]5/C=C\CCCCC[C@H](NC(=O)OC(C)(C)C)C(=O)N4C3)cc(-c3ccccc3)nc2c1 (relative stereo) [Compound 11, (1S,4R,6S,13S,18R)-7-cis-[4-Cyclopropanesulfonyl-aminocarbonyl-18-(7-methoxy-2-phenylquinolin-4-yloxy)-2,15-dioxo-3,16-diazatricyclo-[14.3.0.0^4,6]nona-dec-7-en-14-yl]carbamic acid tert-butyl ester]	< 50	< 50	–	–
COc1ccc2c(O[C@@H]3C[C@H]4C(=O)N[C@]5(C(=O)NS(=O)(=O)C6CC6)C[C@H]5/C=C/CC[C@H](NC(=O)OC(C)(C)C)C(=O)N4C3)cc(-c3ccccc3)nc2c1 [Compound 1, (1S,4R,6S,11S,15R)-7-trans-[4-Cyclopropanesulfonyl-amino-carbonyl-15-(7-methoxy-2-phenylquinolin-4-yloxy)-2,12-dioxo-3,13-diazatricyclo[11.3.0.0^4,6]hexa-dec-7-en-11-yl]carbamic acid tert-butyl ester]	–	–	< 5000	< 50000
COc1ccc2c(O[C@@H]3C[C@H]4C(=O)N[C@]5(C(=O)NS(=O)(=O)C6CC6)CC5/C=C/CC[C@H](N)C(=O)N4C3)cc(-c3ccccc3)nc2c1 (stereo partly drawn) [Compound 2, (1S 4R,6S,11S,15R)-7-trans-Cyclopropanesulfonic acid [11-amino-15-(7-methoxy-2-phenylquinolin-4-yloxy)-2,12-dioxo-3,13-diazatricyclo-[11.3.0.0^4,6]hexadec-7-ene-4-carbonyl]amide dihydrochloride]	–	–	< 5000	–
COc1ccc2c(O[C@@H]3C[C@H]4C(=O)N[C@]5(C(=O)NS(=O)(=O)C6CC6)CC5/C=C/CCC[C@H](NC(=O)OC(C)(C)C)C(=O)N4C3)cc(-c3ccccc3)nc2c1 (stereo partly drawn) [Compound 3, (1S,4R,6S,12S,16R)-7-trans-[4-Cyclopropanesulfonyl-aminocarbonyl-16-(7-methoxy-2-phenylquinolin-4-yloxy)-2,13-dioxo-3,14-diazatricyclo[12.3.0.0^4,6]heptadec-7-en-12-yl]carbamic acid tert-butyl ester]	–	–	< 5000	< 50000
COc1ccc2c(O[C@@H]3C[C@H]4C(=O)N[C@]5(C(=O)NS(=O)(=O)C6CC6)CC5/C=C/CCC[C@H](N)C(=O)N4C3)cc(-c3ccccc3)nc2c1 (stereo partly drawn) [Compound 4, (1S,4R,6S,12S,16R)-7-trans-Cyclopropanesulfonic acid [12-amino-16-(7-methoxy-2-phenylquinolin-4-yloxy)-2,13-dioxo-3,14-diazatricyclo [12.3.0.0^4,6]heptadec-7-ene-4-carbonyl]amide dihydrochloride]	–	–	< 50000	–
COc1ccc2c(O[C@@H]3C[C@H]4C(=O)N[C@]5(C(=O)NS(=O)(=O)C6CC6)CC5/C=C/CCCC[C@H](NC(=O)OC(C)(C)C)C(=O)N4C3)cc(-c3ccccc3)nc2c1 (stereo partly drawn) [Compound 5, (1S,4R,6S,13S,17R)-7-trans-[4-Cyclopropanesul-fonylamino-carbonyl-17-(7-methoxy-2-phenylquinolin-4-yloxy)-2,14-dioxo-3,15-diazatricyclo[13.3.0.0^4,6]octa-dec-7-en-13-yl]carbamic acid tert-butyl ester]	–	–	< 50	< 50
COc1ccc2c(O[C@@H]3C[C@H]4C(=O)N[C@]5(C(=O)NS(=O)(=O)C6CC6)CC5/C=C\CCCC[C@H](NC(=O)OC(C)(C)C)C(=O)N4C3)cc(-c3ccccc3)nc2c1 (stereo partly drawn) [Compound 7, (1S,4R,65,13S,17R)-7-cis-[4-Cyclopropanesulfonylamino-carbonyl-17-(7-methoxy-2-phenylquinolin-4-yloxy)-2,14-dioxo-3,15-diazatricyclo[13.3.0.0^4,6]octadec-7-en-13-yl]carbamic acid tert-butyl ester]	–	–	< 50	< 50
COc1ccc2c(O[C@@H]3C[C@H]4C(=O)N[C@]5(C(=O)NS(=O)(=O)C6CC6)CC5/C=C\CCCC[C@H](N)C(=O)N4C3)cc(-c3ccccc3)nc2c1 (stereo partly drawn) [Compound 8, (1S,4R,6S,13S,17R)-7-cis-Cyclopropanesulfonic acid [13-amino-17-(7-methoxy-2-phenylquinolin-4-yloxy)-2,14-dioxo-3,15-diazatricyclo[13.3.0.0^4,6]octadec-7-ene-4-carbonyl]amide dihydrochloride]	–	–	< 50	< 500
COc1ccc2c(O[C@@H]3C[C@H]4C(=O)N[C@]5(C(=O)NS(=O)(=O)C6CC6)C[C@H]5/C=C\CCCCC[C@H](NC(=O)OC(C)(C)C)C(=O)N4C3)cc(-c3ccccc3)nc2c1 [Compound 9, (1S,4R,6S,14S,18R)-7-cis-[4-Cyclopropanesulfonylamino-carbonyl-18-(7-methoxy-2-phenylquinolin-4-yloxy)-2,15-dioxo-3,16-diazatricyclo[14.3.0.0^4,6]nonadec-7-en-14-yl]carbamic acid tert-butyl ester]	–	–	< 50	< 50
COc1ccc2c(O[C@@H]3C[C@H]4C(=O)N[C@]5(C(=O)NS(=O)(=O)C6CC6)CC5/C=C\CCCCC[C@H](N)C(=O)N4C3)cc(-c3ccccc3)nc2c1 (stereo partly drawn) [Compound 10, (1S,4R,6S,14S,18R)-7-cis-Cyclopropane-sulfonic acid [14-amino-18-(7-methoxy-2-phenylquinol-in-4-yloxy)-2,15-dioxo-3,16-diazatricyclo[14.3.0.0^4,6]-nonadec-7-ene-4-carbonyl]amide dihydrochloride]	–	–	< 50	< 50

From patent US6867185B2 (Bristol-Myers Squibb Company, priority 2001, dated 2005)
